Test results taken from patent US11445724B2, “Insecticidal compounds” (SYNGENTA PARTICIPATIONS AG, priority 2013, dated 2022).

Legend:
Type in all cases: in vivo
[1] = tested on: Diabrotica balteata (Corn root worm); assay: Diabrotica balteata (Corn root worm) larval mortality, artificial diet in 24-well MTP; settings: 120 h, application rate 200 ppm (concentration in well 18 ppm), L2 larvae, larval mortality after 5 days
[2] = tested on: Myzus persicae (Green peach aphid); assay: Myzus persicae (Green peach aphid) mortality, test compounds mixed with Sucrose solution under Parafilm; settings: 120 h, 12.5 ppm in Sucrose solution, infested pea seedlings on Parafilm, mortality 5 days after infestation
[3] = tested on: Plutella xylostella (Diamond back moth); assay: Plutella xylostella (Diamond back moth) larval mortality, artificial diet in 24-well MTP; settings: 144 h, application rate 200 ppm (concentration in well 18 ppm), L2 larvae, larval mortality after 6 days
[4] = tested on: Spodoptera littoralis (Egyptian cotton leafworm); assay: Spodoptera littoralis (Egyptian cotton leafworm) mortality, sprayed cotton leaf discs; settings: foliar, 72 h, 200 ppm spray on cotton leaf discs, L1 larvae, mortality 3 DAT
[5] = tested on: Thrips tabaci (Onion thrips); assay: Thrips tabaci (Onion thrips) mortality, sprayed sunflower leaf discs; settings: foliar, 168 h, 200 ppm spray on sunflower leaf discs, mixed ages, mortality after 7 days
[6] = tested on: Myzus persicae (Green peach aphid); assay: Myzus persicae (Green peach aphid) mortality, sprayed sunflower leaf discs; settings: foliar, 144 h, 200 ppm spray on sunflower leaf discs, mixed ages, mortality 6 DAT

COc1c(NC(=O)c2ccccc2F)cccc1C(=O)Nc1c(Br)cc(C(F)(C(F)(F)F)C(F)(F)F)cc1OC(F)F [Compound 33]
≥ 80%: pest or weed control at 200 ppm [1] | pest or weed control at 12.5 ppm [2] | pest or weed control at 200 ppm [3] | pest or weed control at 200 ppm [4] | pest or weed control at 200 ppm [5]

COc1c(NC(=O)c2ccc(C)cc2)cccc1C(=O)Nc1c(Br)cc(C(F)(C(F)(F)F)C(F)(F)F)cc1OC(F)F [Compound 41]
≥ 80%: pest or weed control at 200 ppm [1] | pest or weed control at 200 ppm [6] | pest or weed control at 12.5 ppm [2] | pest or weed control at 200 ppm [3] | pest or weed control at 200 ppm [4] | pest or weed control at 200 ppm [5]

COc1c(NC(=O)c2cc(Cl)ccc2F)cccc1C(=O)Nc1c(Br)cc(C(F)(C(F)(F)F)C(F)(F)F)cc1OC(F)F [Compound 44]
≥ 80%: pest or weed control at 12.5 ppm [2] | pest or weed control at 200 ppm [3] | pest or weed control at 200 ppm [4]

O=C(Nc1cccc(C(=O)Nc2c(Cl)cc(C(F)(C(F)(F)F)C(F)(F)F)cc2OC(F)F)c1F)c1ccccc1F [Compound 45]
≥ 80%: pest or weed control at 200 ppm [1] | pest or weed control at 200 ppm [6] | pest or weed control at 12.5 ppm [2] | pest or weed control at 200 ppm [3] | pest or weed control at 200 ppm [4] | pest or weed control at 200 ppm [5]

COc1c(NC(=O)c2ccccc2OC(F)(F)F)cccc1C(=O)Nc1c(Br)cc(C(F)(C(F)(F)F)C(F)(F)F)cc1OC(F)F [Compound 56]
≥ 80%: pest or weed control at 200 ppm [1] | pest or weed control at 200 ppm [6] | pest or weed control at 12.5 ppm [2] | pest or weed control at 200 ppm [3] | pest or weed control at 200 ppm [4] | pest or weed control at 200 ppm [5]

CCN(C(=O)c1cc(Cl)ccc1F)c1cccc(C(=O)Nc2c(Br)cc(C(F)(C(F)(F)F)C(F)(F)F)cc2OC(F)F)c1F [Compound 104]
≥ 80%: pest or weed control at 200 ppm [1] | pest or weed control at 12.5 ppm [2] | pest or weed control at 200 ppm [3] | pest or weed control at 200 ppm [4] | pest or weed control at 200 ppm [5]

CCN(C(=O)c1ccc(C(F)(F)F)cc1)c1cccc(C(=O)Nc2c(Br)cc(C(F)(C(F)(F)F)C(F)(F)F)cc2OC(F)F)c1F [Compound 105]
≥ 80%: pest or weed control at 200 ppm [1] | pest or weed control at 200 ppm [6] | pest or weed control at 12.5 ppm [2] | pest or weed control at 200 ppm [3] | pest or weed control at 200 ppm [4] | pest or weed control at 200 ppm [5]

CCN(C(=O)c1cc(C(F)(F)F)ccc1F)c1cccc(C(=O)Nc2c(Br)cc(C(F)(C(F)(F)F)C(F)(F)F)cc2OC(F)F)c1F [Compound 110]
≥ 80%: pest or weed control at 200 ppm [1] | pest or weed control at 12.5 ppm [2] | pest or weed control at 200 ppm [3] | pest or weed control at 200 ppm [4] | pest or weed control at 200 ppm [5]

CCN(C(=O)c1ccccc1F)c1cccc(C(=O)Nc2c(Cl)cc(C(F)(C(F)(F)F)C(F)(F)F)cc2OC(F)F)c1F [Compound 111]
≥ 80%: pest or weed control at 200 ppm [1] | pest or weed control at 200 ppm [6] | pest or weed control at 12.5 ppm [2] | pest or weed control at 200 ppm [3] | pest or weed control at 200 ppm [4] | pest or weed control at 200 ppm [5]

CCN(C(=O)c1ccc([N+](=O)[O-])cc1)c1cccc(C(=O)Nc2c(Cl)cc(C(F)(C(F)(F)F)C(F)(F)F)cc2OC(F)F)c1F [Compound 113]
≥ 80%: pest or weed control at 200 ppm [1] | pest or weed control at 12.5 ppm [2] | pest or weed control at 200 ppm [3] | pest or weed control at 200 ppm [4]

CCN(C(=O)c1ccc(C)cc1)c1cccc(C(=O)Nc2c(Cl)cc(C(F)(C(F)(F)F)C(F)(F)F)cc2OC(F)F)c1F [Compound 114]
≥ 80%: pest or weed control at 200 ppm [1] | pest or weed control at 12.5 ppm [2] | pest or weed control at 200 ppm [3] | pest or weed control at 200 ppm [4] | pest or weed control at 200 ppm [5]

CCN(C(=O)c1cc(Cl)ccc1F)c1cccc(C(=O)Nc2c(Cl)cc(C(F)(C(F)(F)F)C(F)(F)F)cc2OC(F)F)c1F [Compound 115]
≥ 80%: pest or weed control at 200 ppm [1] | pest or weed control at 12.5 ppm [2] | pest or weed control at 200 ppm [3] | pest or weed control at 200 ppm [4] | pest or weed control at 200 ppm [5]

CCN(C(=O)c1ccc([N+](=O)[O-])cc1Cl)c1cccc(C(=O)Nc2c(Cl)cc(C(F)(C(F)(F)F)C(F)(F)F)cc2OC(F)F)c1F [Compound 116]
≥ 80%: pest or weed control at 200 ppm [1] | pest or weed control at 12.5 ppm [2] | pest or weed control at 200 ppm [4] | pest or weed control at 200 ppm [5]

CCN(C(=O)c1ccc(C(F)(F)F)cc1)c1cccc(C(=O)Nc2c(Cl)cc(C(F)(C(F)(F)F)C(F)(F)F)cc2OC(F)F)c1F [Compound 117]
≥ 80%: pest or weed control at 200 ppm [1] | pest or weed control at 12.5 ppm [2] | pest or weed control at 200 ppm [3] | pest or weed control at 200 ppm [4] | pest or weed control at 200 ppm [5]

CCN(C(=O)c1cccc(F)c1F)c1cccc(C(=O)Nc2c(Cl)cc(C(F)(C(F)(F)F)C(F)(F)F)cc2OC(F)F)c1F [Compound 123]
≥ 80%: pest or weed control at 200 ppm [1] | pest or weed control at 200 ppm [6] | pest or weed control at 12.5 ppm [2] | pest or weed control at 200 ppm [3] | pest or weed control at 200 ppm [4] | pest or weed control at 200 ppm [5]

CCN(C(=O)c1ccccc1C)c1cccc(C(=O)Nc2c(Br)cc(C(F)(C(F)(F)F)C(F)(F)F)cc2OC(F)F)c1F [Compound 126]
≥ 80%: pest or weed control at 200 ppm [1] | pest or weed control at 12.5 ppm [2] | pest or weed control at 200 ppm [3] | pest or weed control at 200 ppm [4] | pest or weed control at 200 ppm [5]

CCN(C(=O)c1cccc(F)c1F)c1cccc(C(=O)Nc2c(Br)cc(C(F)(C(F)(F)F)C(F)(F)F)cc2OC(F)F)c1OC [Compound 142]
≥ 80%: pest or weed control at 200 ppm [1] | pest or weed control at 200 ppm [6] | pest or weed control at 200 ppm [3] | pest or weed control at 200 ppm [4] | pest or weed control at 200 ppm [5]

CCN(C(=O)c1ccc(F)cc1F)c1cccc(C(=O)Nc2c(Br)cc(C(F)(C(F)(F)F)C(F)(F)F)cc2OC(F)F)c1OC [Compound 143]
≥ 80%: pest or weed control at 200 ppm [1] | pest or weed control at 200 ppm [6] | pest or weed control at 200 ppm [3] | pest or weed control at 200 ppm [4] | pest or weed control at 200 ppm [5]

CCN(C(=O)c1ccccc1Cl)c1cccc(C(=O)Nc2c(Cl)cc(C(F)(C(F)(F)F)C(F)(F)F)cc2OC(F)F)c1OC [Compound 147]
≥ 80%: pest or weed control at 200 ppm [1] | pest or weed control at 200 ppm [6] | pest or weed control at 200 ppm [3] | pest or weed control at 200 ppm [4] | pest or weed control at 200 ppm [5]

CCN(C(=O)c1ccc(C)cc1)c1cccc(C(=O)Nc2c(Cl)cc(C(F)(C(F)(F)F)C(F)(F)F)cc2OC(F)F)c1OC [Compound 149]
≥ 80%: pest or weed control at 200 ppm [1] | pest or weed control at 200 ppm [6] | pest or weed control at 200 ppm [3] | pest or weed control at 200 ppm [4] | pest or weed control at 200 ppm [5]

CCN(C(=O)c1ccc(F)cc1F)c1cccc(C(=O)Nc2c(Cl)cc(C(F)(C(F)(F)F)C(F)(F)F)cc2OC(F)F)c1OC [Compound 160]
≥ 80%: pest or weed control at 200 ppm [1] | pest or weed control at 12.5 ppm [2] | pest or weed control at 200 ppm [3] | pest or weed control at 200 ppm [4] | pest or weed control at 200 ppm [5]

COc1c(C(=O)Nc2c(Br)cc(C(F)(C(F)(F)F)C(F)(F)F)cc2OC(F)F)cccc1N(C)C(=O)c1cc[n+]([O-])cc1 [Compound 183, N-[3-[[2-bromo-6-(difluoromethoxy)-4-[1,2,2,2-tetrafluoro-1-(trifluoromethyl)ethyl]phenyl]carbamoyl]-2-methoxy-phenyl]-N-methyl-1-oxido-pyridin-1-ium-4-carboxamide]
≥ 80%: pest or weed control at 200 ppm [1] | pest or weed control at 12.5 ppm [2]
